Experimental data reported in patent US6319910A, “Method for inhibiting cyclooxygenase-2 and tumor necrosis factor alpha” (Hospital for Joint Diseases, priority 1998, dated 2001).

Columns and labels:
RAW 264.7 cells [1] = assay: Nitrite (NO) production/accumulation in LPS-stimulated RAW 264.7 cells; format: cell-based, murine; details: for inhibition at 10 µg/mL: Mus musculus, RAW264.7, 16 h
Protocol: (§1) Murine macrophages (RAW 263.7 cells) which were grown in Dulbecco's modified eagle medium (DMEM) containing 10% fetal bovine serum, 2 mM glutamine, 50 U/ml penicillin and 50 μg/ml streptomycin, were stimulated with 100 ng/ml LPS to induce both NOS and COX-2 at 16 hr. […] The data presented in FIG. 1 represents mean±SD as examined by T test were n=3.
(§2) The effects of CMTs 1, 2, 3, 5 and 8 on PGE2 and NO accumulation in RAW 264.7 cells were further evaluated as described above for CMT-3. […]

RAW 264.7 cells [2] = assay: PGE2 production/accumulation in LPS-stimulated RAW 264.7 cells; format: cell-based, murine; details: for inhibition at 10 µg/mL: Mus musculus, RAW264.7, 16 h, read-out: PGE2 % Inhibition or (Increase)
Protocol: as §1, §2

NOS = NOS expression in LPS-stimulated murine macrophages; format: cell-based; details: FIG. 2; LPS 100 ng/ml; words
Protocol: (§3) RAW 263.7 cells were grown as previously described (Amin et al, 1995b). Murine macrophages stimulated with 100 ng/ml LPS were incubated with CMT-3 or tunicamycin (a glycosylation inhibitor). […] Nitrite and PGE2 were estimated as previously described (Amin et al, 1995b). It is quite possible that CMT-3 may inhibit COX-2 and PGE2 production by post translational modification of COX-2 which may be similar to tunicamycin inhibition. The data represents the mean±SD evaluated by T test (n=3).

COX-2 [3] = assay: Expression/modification (size) of COX-2 in LPS-stimulated murine macrophages, Western blot; format: cell-based; details: LPS 100 ng/ml, words
Protocol: as §3
Murine macrophage cells were cultivated as previously described (Amin et al, 1995b). […] cells were stimulated with 100 ng/ml of LPS in the presence of CMT-3, CMT-5 and glycosylation inhibitor, tunicamycin. The cells were grown for 16 hr and harvested. The cell free extracts were prepared as previously described (Amin et al, 1995b). In FIG. 4A, 50 μg of protein was loaded in each well and run on SDS-PAGE gels and blotted onto Western blots using a specific anti COX-2 antibody as previously described (Amin et al, 1997a). The positive control is a standard COX-2. […] The size is approximately 2000 D smaller (CMT-3 form) than the native COX-2 shown as a standard. […] These experiments indicate that CMT-3 induces modification of the COX-2 protein. The SDS PAGE analysis and Western blotting of COX-2 was carried out as described above.

OA-affected cartilage [4] = assay: Spontaneous PGE2 release by OA-affected cartilage (ex vivo organ culture); format: cell-based, human; details: Table 2; 5 μg/ml
Protocol: (§4) Human osteoarthritis affected cartilage spontaneously release nitric oxide (NO) and PGE2 in the medium as previously reported (Amin et al, 1995a; 1997a). The OA-organ cultures were set up as described (Amin et al, 1995a; 1997a). Briefly, total knee articular cartilage from tibial plateau and femoral condyle were harvested from OA-affected patients. The cartilage was mixed and cut into 3-mm discs and 4-6 discs were placed in triplicate or quadruplicate, in a 24-well plate in 2.0 ml of Ham's F-12 medium supplemented with 0.2% endotoxin free human albumin, 10 mM Hepes pH 7.4 and antibiotics in the presence of various modulators, as previously described (Amin et al, 1995a; 1997a). CMT-8 was used at pharmacologically relevant concentrations in DMSO (<0.01% final concentration) as carrier. An equivalent amount of DMSO was also added in the control cultures.
(§5) The p value between control and CMT-8 treated values for PGE2≤0.1 (insignificant) whereas the p values between NMMA treated cartilage and CMT-8 treated cartilage was ≤0.001 (significant). The data are represented as mean±SD as examined by T test when n=3. Data represent±SD value as determined by Student's t test n=4. The P values described are compared with control unstimulated OA-cartilage. The data represents one of the two similar experiments. P values for PGE2 and Nitrite=^a≤0.5; ^b≤0.1; ^c≤0.05; ^d≤0.01.

OA-affected cartilage [5] = assay: Spontaneous nitrite/nitric oxide release by OA-affected cartilage (ex vivo organ culture); format: cell-based, human; details: Table 2; 5 μg/ml
Protocol: as §4, §5

TNFα = TNFα release in the medium by HEK 293 cells permanently transfected with human proTNFα (ELISA); format: cell-based; details: words; for Effect on spontaneous TNFα release: FIG. 8, 16 hours
Protocol: HEK 293 cells were transfected with the proTNFα cDNA (wild) to prepare a stable cell line. […] A mutant form of proTNFα cDNA which could not be cleaved by the endogenous TNFα convertase (TACE) to release soluble TNFα was also transfected in separate human HEK 293 cells. The soluble TNFα was estimated by ELISA from the wild type and mutant transfected cells from the medium (FIG. 6).
HEK 293 cells were grown as previously described by American Type Culture Collection (ATCC). […] The HEK 293 cells were incubated with CMT-3 to examine the effects of CMT-3 on TNFα release in the medium.
HEK 293 cells were grown under the conditions previously described by ATCC. Various compounds, including CMT-3 and doxycycline/minocyclines were incubated with proTNFα transfected HEK 293 cells releasing TNFα in the medium at 16 hours. […] Soluble TNFα was estimated by ELISA from the medium.

COX-2 [6] = target: T1, COX-2 (Mus musculus, UniProt Q05769); assay: COX-2 specific activity in cell-free extracts of LPS-stimulated RAW 264.7 cells (PGE2 by RIA); format: biochemical, murine
T1 construct: using total unfractionated cell extracts; endogenous in cells; host or cells: RAW 264.7 cells, LPS-induced; cell-free extract
T1 sequence (Q05769 18-604): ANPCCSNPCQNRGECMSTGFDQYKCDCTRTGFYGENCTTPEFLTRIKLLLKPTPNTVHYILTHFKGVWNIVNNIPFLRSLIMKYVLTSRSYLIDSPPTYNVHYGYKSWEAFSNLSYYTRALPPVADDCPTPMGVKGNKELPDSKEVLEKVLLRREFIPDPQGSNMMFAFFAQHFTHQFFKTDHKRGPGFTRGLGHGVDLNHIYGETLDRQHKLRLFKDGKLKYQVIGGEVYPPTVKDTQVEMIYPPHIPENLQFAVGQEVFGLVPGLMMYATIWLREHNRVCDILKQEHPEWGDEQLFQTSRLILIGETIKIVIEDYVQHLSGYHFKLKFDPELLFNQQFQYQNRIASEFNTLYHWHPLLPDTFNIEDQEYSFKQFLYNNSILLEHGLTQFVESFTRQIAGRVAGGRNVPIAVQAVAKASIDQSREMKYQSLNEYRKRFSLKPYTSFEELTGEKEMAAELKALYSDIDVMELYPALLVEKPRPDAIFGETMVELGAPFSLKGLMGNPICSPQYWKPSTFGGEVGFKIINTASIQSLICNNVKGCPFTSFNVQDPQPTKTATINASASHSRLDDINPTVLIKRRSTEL
Protocol: Raw 264.7 cells were stimulated with LPS and cell-free extracts were prepared as follows. RAW 264.7 cells were induced with LPS (100 ng/ml) in the presence or absence of tetracyclines or hydrocortisone for 14-20 hours. Following induction, the cells were pelleted at 4° C. and resuspended in Tris buffer: 10 mM, pH 7.4 containing 10 μg/ml each of chymostatin, antipain, leupeptin and pepstatin, 1 mM DDT and 1 mM PMSF. Cells were lysed in a Polytron PA 1200 homogenizer (Kinematica AG, Switzerland) with the cocktail of protease inhibitors after 3 cycles of rapid freeze-thawing. The lysate was centrifuged at 18,000 at 4° C. in an eppendorf centrifuge, and the resulting supernatant was used as cell-free extracts. The protein was measured by BCA assay reagent (Pierce, Rockford, Ill.) using BSA as standard. […] The specific enzyme activity was defined as ng of PGE2 released/mg protein/37° C. for 20 minutes.
RAW 264.7 cells were stimulated with 1 μg/ml of LPS for 16 hours and cell-free extracts were prepared as described above. The extracts were incubated with different modulators for 20 minutes at 37° C. before adding the substrate to initiate the enzyme reaction, which was terminated after 30 minutes by heat inactivation. The data represent one of the two experiments, the PGE2 analysis from each sample was done in triplicates n=3. The p value is a comparison between control and experimentals.

[7] = Experiment I, LPS 100 ng/ml, compound 10 μg/ml, 16 hours
[8] = Experiment II, LPS 100 ng/ml, compound 10 μg/ml, 16 hours

In the case of tunicamycin [reference compound], the “Effect on NO production” value (RAW 264.7 cells [1]; FIG. 2, LPS 100 ng/ml, words) is reported as “inhibit”, the “Effect on PGE2 production” value (RAW 264.7 cells [2]; FIG. 2, LPS 100 ng/ml, words) is reported as “inhibit” and the “Effect on NOS expression” value (NOS) is reported as “inhibit”. For the same compound, the “Effect on COX-2 expression” value (COX-2 [3]; FIG. 2) was “inhibit” and the “Effect on size of COX-2” value (COX-2 [3]; FIG. 4A, 16 hr, Western blot) was “much smaller than the native form”.

For C[C@@]1(O)c2cccc(O)c2C(O)=C2C(=O)[C@]3(O)C(O)=C(C(N)=O)C(=O)C[C@@H]3C[C@@H]21 [CMT-1, 4-dedimethylaminotetracycline], the Nitrite (RAW 264.7 cells [1]; [7]) was 50.8 µM, the Nitrite (RAW 264.7 cells [1]; [8]) was 20.3 µM and the PGE2 (OA-affected cartilage [4]) was 131.8 ± 37.7 ng/mL. The Nitrite (OA-affected cartilage [5]) was 82.0 ± 33.0 µM, the PGE2 accumulation (RAW 264.7 cells [2]; 16 h, 10 ug/mL) was 31.5 ± 2.5 ng/mL and the PGE2 accumulation (RAW 264.7 cells [2]; [8]) was 30.2 ± 8.0 ng/mL. For the same compound, the “Effect on spontaneous TNFα release” value (TNFα) was “inhibit the spontaneous TNFα release” and the “Inhibition of TNFα (summary statement)” value (TNFα; HEK 293 cells transfected with proTNFα cDNA, low levels) was “inhibiting TNFα”.

CN(C)C1C(=O)C(C#N)=C(O)C2(O)C(=O)C3=C(O)c4c(O)cccc4C(C)(O)C3CC12 (stereo not shown) [CMT-2] showed a Nitrite (RAW 264.7 cells [1]; [8]) of 23.3 ± 3.5 µM, a PGE2 (OA-affected cartilage [4]) of 145.2 ± 61.6 ng/mL and a Nitrite (OA-affected cartilage [5]) of 84.0 ± 20.0 µM. For the same compound, the PGE2 accumulation (RAW 264.7 cells [2]; [7]) was 26.8 ± 8.8 ng/mL, the PGE2 accumulation (RAW 264.7 cells [2]; [8]) was 22.9 ± 5.0 ng/mL and the “Effect on spontaneous TNFα release” value (TNFα) was “not CMT-2 and CMT-5, inhibit the spontaneous TNFα release”.

For CC(=O)Oc1ccccc1C(=O)O [Aspirin, aspirin, reference compound], the “Effect on specific activity of COX-2” value (COX-2 [6]; CMT-3 27 μM, CMT-8 27 μM, aspirin 56 μM, indomethacin 28 μM, words) was “significantly inhibited the specific activity of COX-2” and the “COX-2 Specific Activity” value (COX-2 [6]; Table 3, cell-free extracts, 10 μg (aspirin amount not given)) was 2.1 ± 0.1 PGE2 ng/mg protein.

C[C@]12CCC(=O)C=C1CC[C@@H]1[C@@H]2[C@@H](O)C[C@@]2(C)[C@H]1CC[C@]2(O)C(=O)CO [Hydrocortisone, hydrocortisone, reference compound] gave a Nitrite (RAW 264.7 cells [1]; 16 h, 10 ug/mL) of 34.3 µM, a Nitrite (RAW 264.7 cells [1]; [8]) of 12.9 µM and an inhibition at 10 µg/mL (RAW 264.7 cells [1]; [7]) of 32%. It also gave an inhibition at 10 µg/mL (RAW 264.7 cells [1]; [8]) of 40%, a PGE2 accumulation (RAW 264.7 cells [2]; 16 h, 10 ug/mL) of 12.3 ± 2.6 ng/mL and a PGE2 accumulation (RAW 264.7 cells [2]; [8]) of 9.5 ± 0.5 ng/mL. For the same compound, the inhibition at 10 µg/mL (RAW 264.7 cells [2]; [7]) was 52% and the inhibition at 10 µg/mL (RAW 264.7 cells [2]; [8]) was 50%.

With C[C@@H]1C[C@@H]([C@H](O)CC2CC(=O)NC(=O)C2)C(=O)[C@@H](C)C1 [Cycloheximide, cycloheximide, reference compound] the “Effect on TNFα release in the medium” value (TNFα; FIG. 7) was “inhibited the release of TNFα in the medium” and the “Effect on spontaneous TNFα release” value (TNFα) was “inhibit the release of TNFα”.
